Experimental data taken from publication PMC9267852, “Hepatic Expression of the Na^+-Taurocholate Cotransporting Polypeptide Is Independent from Genetic Variation” (International Journal of Molecular Sciences, 2022).
Numbering of substitutions follows the chain as printed. pIC50: −log10 of the molar value.

What was measured:
Format in all cases: cell-based
[1] = molecular target: T1, Na+-taurocholate cotransporting polypeptide (NTCP) (Homo sapiens, UniProt Q14973, S213R); experiment: inhibition of [3H]taurocholate uptake in NTCP-S213R-expressing HEK cells; sodium-dependent remdesivir uptake Km […]
T1 construct: gene SLC10A1; NTCP-p.S213R, stably expressed in HEK cells
T1 sequence (Q14973 1-349 S213R): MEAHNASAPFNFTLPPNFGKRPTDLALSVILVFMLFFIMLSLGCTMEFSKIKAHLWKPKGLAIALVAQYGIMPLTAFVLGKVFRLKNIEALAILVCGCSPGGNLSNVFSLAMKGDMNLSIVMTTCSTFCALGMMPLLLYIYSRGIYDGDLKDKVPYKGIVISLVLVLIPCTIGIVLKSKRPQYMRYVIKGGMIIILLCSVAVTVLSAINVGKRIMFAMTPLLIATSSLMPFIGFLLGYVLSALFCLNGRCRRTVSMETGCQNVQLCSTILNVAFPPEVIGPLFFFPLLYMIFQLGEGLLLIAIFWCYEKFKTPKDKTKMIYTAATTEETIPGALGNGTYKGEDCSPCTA

[2] = molecular target: T2, Na+-taurocholate cotransporting polypeptide (NTCP) (Homo sapiens, UniProt Q14973); experiment: inhibition of [3H]taurocholate uptake in NTCP-expressing HEK cells; remdesivir also taken up sodium-dependently (Km […])
T2 construct: gene SLC10A1
T2 sequence (Q14973 1-349): T1 sequence (Q14973 1-349 S213R) with R213S

[3] = molecular target: T3, Na+-taurocholate cotransporting polypeptide (NTCP) (Homo sapiens, UniProt Q14973, R185C); experiment: inhibition of [3H]taurocholate uptake in NTCP-R185C-expressing HEK cells; sodium-dependent remdesivir uptake Km […]
T3 construct: gene SLC10A1; NTCP-p.R185C, stably expressed in HEK cells
T3 sequence (Q14973 1-349 R185C): T1 sequence (Q14973 1-349 S213R) with R185C, R213S

pIC50 [1]: 4.20 | pIC50 [2]: 4.04 | pIC50 [3]: 4.19
Structure (SMILES): CCC(CC)COC(=O)[C@H](C)N[P@](=O)(OC[C@H]1O[C@@](C#N)(c2ccc3c(N)ncnn23)[C@H](O)[C@@H]1O)Oc1ccccc1 [remdesivir]
